Here are results for three compounds from ChEMBL document CHEMBL1146578, “10-Methoxydihydrofuscin, fuscinarin, and fuscin, novel antagonists of the human CCR5 receptor from Oidiodendron griseum” (J Nat Prod, 2003).

C-C chemokine receptor type 5, sequence (P51681 whole entry): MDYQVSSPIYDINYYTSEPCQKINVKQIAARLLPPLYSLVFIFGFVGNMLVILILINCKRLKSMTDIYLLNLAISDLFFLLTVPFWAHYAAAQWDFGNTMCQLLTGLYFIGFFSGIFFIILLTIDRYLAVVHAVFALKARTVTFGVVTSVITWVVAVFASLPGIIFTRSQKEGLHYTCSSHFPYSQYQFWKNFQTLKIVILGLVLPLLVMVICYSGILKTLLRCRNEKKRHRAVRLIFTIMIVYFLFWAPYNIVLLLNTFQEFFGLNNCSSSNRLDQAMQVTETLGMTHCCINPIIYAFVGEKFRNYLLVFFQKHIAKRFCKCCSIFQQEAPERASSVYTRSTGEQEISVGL

The assay has as its target C-C chemokine receptor type 5 (Homo sapiens, UniProt P51681). Description: Displacement of [125I]human-MIP1-alpha from human CCR5 receptor expressed in CHO cells by SPA. Type of assay: cell-based.
As usually defined, the IC50 is the point on the concentration scale where inhibition reaches its midpoint. Higher therefore signals weaker potency. Consider `COC1C(=O)OC(C)c2c(O)c(O)c3c(c21)CCC(C)(C)O3` (stereo not drawn), for which the IC50 was 154 µM.
Turning to `CC1OC(=O)c2c3c(c(O)c(O)c21)OC(C)(C)CC3` (stereo not drawn) [FUSCINARIN], the IC50 was determined as 80 µM.
Compound `CC1OC(=O)C=C2C3=C(OC(C)(C)CC3)C(=O)C(O)=C21` (stereo not drawn) [FUSCIN] came in with an IC50 of 21 µM.
